Values after ≈ are worked out from the molar mass of the structure shown. Read-outs that look alike come from different tables or passages of the source.
Experiments:
[1] = physchem; details: 25 °C, thermodynamic from solid
[2] = 0.1N HCL, 1.0% DMSO, 24-hour incubation at ambient temperature, maximum theoretical compound concentration 100 μM
[3] = 1×PBS buffer (pH 7.4), 1.0% DMSO, 24-hour incubation at ambient temperature, maximum theoretical compound concentration 100 μM

CC(C)(C#Cc1ccc(-c2ccc(Cl)c3c(N(C(=O)CCC(CC(=O)O)NC(=O)OCOP(=O)(O)O)S(C)(=O)=O)nn(CC(F)(F)F)c23)c([C@H](Cc2cc(F)cc(F)c2)NC(=O)Cn2nc(C(F)(F)F)c3c2C(F)(F)[C@@H]2C[C@H]32)n1)S(C)(=O)=O (stereo in doubt) [Compound 34, (R)-6-(N-(4-chloro-7-(2-((S)-1-(2-((3bS,4aR)-5,5-difluoro-3-(trifluoromethyl)-3b,4,4a,5-tetrahydro-1H-cyclopropa[3,4]cyclopenta[1,2-c]pyrazol-1-yl)acetamido)-2-(3,5-difluorophenyl)ethyl)-6-(3-methyl-3-(methylsulfonyl)but-1-yn-1-yl)pyridin-3-yl)-1-(2,2,2-trifluoroethyl)-1H-indazol-3-yl)methylsulfonamido)-6-oxo-3-((((phosphonooxy)methoxy)carbonyl)amino)hexanoic acid]
solubility ([1]; fasted state simulated intestinal fluid (FaSSIF), fassif): > 2840 µg/mL
solubility ([1]; fed state simulated intestinal fluid (FeSSIF), fessif): 454 µg/mL (≈ 359 µM)
pH 2 solubility [2]: 3 μM
pH 7 solubility [3]: 75 μM

CC(C)[C@H](N)C(=O)N(c1nn(CC(F)(F)F)c2c(-c3ccc(C#CC(C)(C)S(C)(=O)=O)nc3[C@H](Cc3cc(F)cc(F)c3)NC(=O)Cn3nc(C(F)(F)F)c4c3C(F)(F)[C@@H]3C[C@H]43)ccc(Cl)c12)S(C)(=O)=O [Compound 20, (S)-2-amino-N-(4-chloro-7-(2-((S)-1-(2-((3bS,4aR)-5,5-difluoro-3-(trifluoromethyl)-3b,4,4a,5-tetrahydro-1H-cyclopropa[3,4]cyclopenta[1,2-c]pyrazol-1-yl)acetamido)-2-(3,5-difluorophenyl)ethyl)-6-(3-methyl-3-(methylsulfonyl)but-1-yn-1-yl)pyridin-3-yl)-1-(2,2,2-trifluoroethyl)-1H-indazol-3-yl)-3-methyl-N-(methylsulfonyl)butanamide]
pH 2 solubility [2]: 69 μM
pH 7 solubility [3]: 2 μM

CN[C@H](C(=O)N(c1nn(CC(F)(F)F)c2c(-c3ccc(C#CC(C)(C)S(C)(=O)=O)nc3[C@H](Cc3cc(F)cc(F)c3)NC(=O)Cn3nc(C(F)(F)F)c4c3C(F)(F)[C@@H]3C[C@H]43)ccc(Cl)c12)S(C)(=O)=O)C(C)C [Compound 21, N-(4-chloro-7-(2-((S)-1-(2-((3bS,4aR)-5,5-difluoro-3-(trifluoromethyl)-3b,4,4a,5-tetrahydro-1H-cyclopropa[3,4]cyclopenta[1,2-c]pyrazol-1-yl)acetamido)-2-(3,5-difluorophenyl)ethyl)-6-(3-methyl-3-(methylsulfonyl)but-1-yn-1-yl)pyridin-3-yl)-1-(2,2,2-trifluoroethyl)-1H-indazol-3-yl)-3-methyl-2-(methylamino)-N-(methylsulfonyl)butanamide]
pH 2 solubility [2]: 72 μM
pH 7 solubility [3]: 2 μM

CC(C)(C#Cc1ccc(-c2ccc(Cl)c3c(N(C(=O)CN(CC(=O)O)CC(=O)O)S(C)(=O)=O)nn(CC(F)(F)F)c23)c([C@H](Cc2cc(F)cc(F)c2)NC(=O)Cn2nc(C(F)(F)F)c3c2C(F)(F)[C@@H]2C[C@H]32)n1)S(C)(=O)=O [Compound 23]
pH 2 solubility [2]: 14 μM
pH 7 solubility [3]: 22 μM

CC(C)(C#Cc1ccc(-c2ccc(Cl)c3c(N(C(=O)[C@H](CCC(=O)O)NC(=O)C(=O)O)S(C)(=O)=O)nn(CC(F)(F)F)c23)c([C@H](Cc2cc(F)cc(F)c2)NC(=O)Cn2nc(C(F)(F)F)c3c2C(F)(F)[C@@H]2C[C@H]32)n1)S(C)(=O)=O [Compound 24, (S)-4-(carboxyformamido)-5-(N-(4-chloro-7-(2-((S)-1-(2-((3bS,4aR)-5,5-difluoro-3-(trifluoromethyl)-3b,4,4a,5-tetrahydro-111-cyclopropa[3,4]cyclopenta[1,2-c]pyrazol-1-yl)acetamido)-2-(3,5-difluorophenyl)ethyl)-6-(3-methyl-3-(methylsulfonyl)but-1-yn-1-yl)pyridin-3-yl)-1-(2,2,2-trifluoroethyl)-1H-indazol-3-yl)methylsulfonamido)-5-oxopentanoic acid]
pH 2 solubility [2]: 1 μM
pH 7 solubility [3]: 14 μM

CC(C)(C#Cc1ccc(-c2ccc(Cl)c3c(N(C(=O)CCCC(=O)O)S(C)(=O)=O)nn(CC(F)(F)F)c23)c([C@H](Cc2cc(F)cc(F)c2)NC(=O)Cn2nc(C(F)(F)F)c3c2C(F)(F)[C@@H]2C[C@H]32)n1)S(C)(=O)=O [Compound 25, 5-(N-(4-chloro-7-(2-((S)-1-(2-((3bS,4aR)-5,5-difluoro-3-(trifluoromethyl)-3b,4,4a,5-tetrahydro-1H-cyclopropa[3,4]cyclopenta[1,2-c]pyrazol-1-yl)acetamido)-2-(3,5-difluorophenyl)ethyl)-6-(3-methyl-3-(methylsulfonyl)but-1-yn-1-yl)pyridin-3-yl)-1-(2,2,2-trifluoroethyl)-1H-indazol-3-yl)methylsulfonamido)-5-oxopentanoic acid]
pH 2 solubility [2]: 1/1 μM
pH 7 solubility [3]: 1/1 μM

C[C@H](CC(=O)O)C(=O)N(c1nn(CC(F)(F)F)c2c(-c3ccc(C#CC(C)(C)S(C)(=O)=O)nc3[C@H](Cc3cc(F)cc(F)c3)NC(=O)Cn3nc(C(F)(F)F)c4c3C(F)(F)[C@@H]3C[C@H]43)ccc(Cl)c12)S(C)(=O)=O [Compound 26, (R)-4-(N-(4-chloro-7-(2-((S)-1-(2-((3bS,4aR)-5,5-difluoro-3-(trifluoromethyl)-3b,4,4a,5-tetrahydro-1H-cyclopropa[3,4]cyclopenta[1,2-c]pyrazol-1-yl)acetamido)-2-(3,5-difluorophenyl)ethyl)-6-(3-methyl-3-(methylsulfonyl)but-1-yn-1-yl)pyridin-3-yl)-1-(2,2,2-trifluoroethyl)-1H-indazol-3-yl)methylsulfonamido)-3-methyl-4-oxobutanoic acid]
pH 2 solubility [2]: 1/1 μM
pH 7 solubility [3]: 1/1 μM

Cc1cc(CC(=O)NCC(=O)O)c(C(C)(C)CC(=O)N(c2nn(CC(F)(F)F)c3c(-c4ccc(C#CC(C)(C)S(C)(=O)=O)nc4[C@H](Cc4cc(F)cc(F)c4)NC(=O)Cn4nc(C(F)(F)F)c5c4C(F)(F)[C@@H]4C[C@H]54)ccc(Cl)c23)S(C)(=O)=O)c(OP(=O)(O)O)c1 [Compound 63, (2-(2-(4-(N-(4-chloro-7-(2-((S)-1-(2-((3bS,4aR)-5,5-difluoro-3-(trifluoromethyl)-3b,4,4a,5-tetrahydro-1H-cyclopropa[3,4]cyclopenta[1,2-c]pyrazol-1-yl)acetamido)-2-(3,5-difluorophenyl)ethyl)-6-(3-methyl-3-(methylsulfonyl)but-1-yn-1-yl)pyridin-3-yl)-1-(2,2,2-trifluoroethyl)-1H-indazol-3-yl)methylsulfonamido)-2-methyl-4-oxobutan-2-yl)-5-methyl-3-(phosphonooxy)phenyl)acetyl)glycine]
pH 2 solubility (pH 2): 1/85 μM
pH 7 solubility (pH 7.4): 1/85 μM

CC(C)(CC(=O)N(c1nn(CC(F)(F)F)c2c(-c3ccc(C#CC(C)(C)S(C)(=O)=O)nc3[C@H](Cc3cc(F)cc(F)c3)NC(=O)Cn3nc(C(F)(F)F)c4c3C(F)(F)[C@@H]3C[C@H]43)ccc(Cl)c12)S(C)(=O)=O)c1c(CC(=O)O)cc(C(N)=O)cc1OP(=O)(O)O [Compound 68]
pH 2 solubility (pH 2): <1/65 μM
pH 7 solubility (pH 7.4): <1/65 μM

CC(C)(CC(=O)N(c1nn(CC(F)(F)F)c2c(-c3ccc(C#CC(C)(C)S(C)(=O)=O)nc3[C@H](Cc3cc(F)cc(F)c3)NC(=O)Cn3nc(C(F)(F)F)c4c3C(F)(F)[C@@H]3C[C@H]43)ccc(Cl)c12)S(C)(=O)=O)c1c(CC(=O)N[C@@H](CC(=O)O)C(=O)O)cc(C(N)=O)cc1OP(=O)(O)O [Compound 69, (2-(5-carbamoyl-2-(4-(N-(4-chloro-7-(2-((S)-1-(2-((3bS,4aR)-5,5-difluoro-3-(trifluoromethyl)-3b,4,4a,5-tetrahydro-1H-cyclopropa[3,4]cyclopenta[1,2-c]pyrazol-1-yl)acetamido)-2-(3,5-difluorophenyl)ethyl)-6-(3-methyl-3-(methylsulfonyl)but-1-yn-1-yl)pyridin-3-yl)-1-(2,2,2-trifluoroethyl)-1H-indazol-3-yl)methylsulfonamido)-2-methyl-4-oxobutan-2-yl)-3-(phosphonooxy)phenyl)acetyl)-L-aspartic acid]
pH 2 solubility (pH 2): 3/75 μM
pH 7 solubility (pH 7.4): 3/75 μM

CC(C)(CC(=O)N(c1nn(CC(F)(F)F)c2c(-c3ccc(C#CC(C)(C)S(C)(=O)=O)nc3[C@H](Cc3cc(F)cc(F)c3)NC(=O)Cn3nc(C(F)(F)F)c4c3C(F)(F)[C@@H]3C[C@H]43)ccc(Cl)c12)S(C)(=O)=O)c1c(CC(=O)O)cccc1OP(=O)(O)O [Compound 70, 2-(2-(4-(N-(4-chloro-7-(2-((S)-1-(2-((3bS,4aR)-5,5-difluoro (trifluoromethyl)-3b,4,4a,5-tetrahydro-1H-cyclopropa[3,4]cyclopenta[1,2-c]pyrazolyl)acetamido)-2-(3,5-difluorophenyl)ethyl)-6-(3-methyl-3-(methylsulfonyl)but-1-ynyl)pyridin-3-yl)-1-(2,2,2-trifluoroethyl)-1H-indazol-3-yl)methylsulfonamido)-2-methyloxobutan-2-yl)-3-(phosphonooxy)phenyl)acetic acid]
pH 2 solubility (pH 2): 7/94 μM
pH 7 solubility (pH 7.4): 7/94 μM

CC(C)(CC(=O)N(c1nn(CC(F)(F)F)c2c(-c3ccc(C#CC(C)(C)S(C)(=O)=O)nc3[C@H](Cc3cc(F)cc(F)c3)NC(=O)Cn3nc(C(F)(F)F)c4c3C(F)(F)[C@@H]3C[C@H]43)ccc(Cl)c12)S(C)(=O)=O)c1c(CC(=O)N[C@@H](CC(=O)O)C(=O)O)cccc1OP(=O)(O)O [Compound 71, (2-(2-(4-(N-(4-chloro-7-(2-((S)-1-(2-((3bS,4aR)-5,5-difluoro-3-(trifluoromethyl)-3b,4,4a,5-tetrahydro-1H-cyclopropa[3,4]cyclopenta[1,2-c]pyrazol-1-yl)acetamido)-2-(3,5-difluorophenyl)ethyl)-6-(3-methyl-3-(methylsulfonyl)but-1-yn-1-yl)pyridin-3-yl)-1-(2,2,2-trifluoroethyl)-1H-indazol-3-yl)methylsulfonamido)-2-methyl-4-oxobutan-2-yl)-3-(phosphonooxy)phenyl)acetyl)-L-aspartic acid]
pH 2 solubility (pH 2): 2/88 μM
pH 7 solubility (pH 7.4): 2/88 μM

Reference: patent publication US11787825B2 (priority 2021, dated 2023)
